Measurements from ChEMBL document CHEMBL1177659, “Structure-based virtual screening, synthesis and SAR of novel inhibitors of hepatitis C virus NS5B polymerase” (Bioorg Med Chem, 2010).
pIC50: −log10 of the molar value.

Key:
[1] = Inhibition of His-tagged recombinant NS5B Cdelta 21 polymerase expressed in Escherichia coli DH5alpha by standard primer dependent elongation assay; design: species or system Hepacivirus hominis
Hepacivirus hominis = assay: Inhibition of His-tagged recombinant NS5B Cdelta 21 polymerase expressed in Escherichia coli DH5alpha at 250 uM by standard primer dependent elongation assay relative to control

| SMILES | pIC50 [1] | inhibition (Hepacivirus hominis) |
| --- | --- | --- |
| O=C(O)CN1C(=O)/C(=C/c2cccc(C(F)(F)F)c2)SC1=S | 4.29 | – |
| O=C(O)CCCCCN1C(=O)/C(=C/c2ccc(Cl)cc2Cl)SC1=S | 4.79 | – |
| O=C(O)CN1C(=O)/C(=C/c2cccc(Oc3ccccc3)c2)SC1=S | 5.11 | – |
| CC(C)C(C(=O)O)N1C(=O)/C(=C/c2ccccc2Cl)SC1=S (centres undefined) | 4.44 | – |
| CSCCC(C(=O)O)N1C(=O)/C(=C/c2ccc(Cl)cc2Cl)SC1=S (centres undefined) | 4.53 | – |
| O=C(O)CN1C(=O)/C(=C/c2cccc3ccccc23)SC1=S | 4.21 | – |
| O=C(O)CN1C(=O)/C(=C/c2ccc(F)cc2)SC1=S | 4.38 | – |
| O=C(O)c1ccc2c(c1)C(=O)N(c1cccc(O)c1)C2=O | 3.70 | 55% |
| CCCC(C(=O)O)N1C(=O)/C(=C/c2ccc(Cl)cc2Cl)SC1=S (centres undefined) | 4.55 | – |
| O=C(O)CN1C(=O)/C(=C/c2ccc(Cl)cc2Cl)SC1=S | 4.75 | – |
| O=C(O)CN1C(=O)/C(=C/c2ccc(C(F)(F)F)cc2)SC1=S | 4.26 | 71% |
| O=C(O)CN1C(=O)/C(=C/c2cccc(Br)c2)SC1=S | 4.69 | – |
| CCc1ccc(/C=C2\SC(N[C@@H](C(=O)O)c3ccc(F)cc3)=NC2=O)o1 (stereo in doubt) [VALEANT] | 5.52 | – |
| O=C1/C(=C/c2ccc(Cl)c(Cl)c2)SC(=S)N1NS(=O)(=O)c1ccccc1 | 6.70 | – |
| O=C(O)CN1C(=O)/C(=C/c2cccc(Cl)c2)SC1=S | 4.74 | – |
| N#Cc1nc(-c2ccccc2)c(-c2ccccc2)nc1C#N | 3.60 | 48.6% |
| O=C(O)CCCN1C(=O)/C(=C/c2ccc(Cl)cc2Cl)SC1=S | 4.24 | – |
| O=C(O)CN1C(=O)/C(=C/c2ccc([N+](=O)[O-])cc2)SC1=S | 4.66 | – |
| O=c1oc2ccccc2c2c1ncn2-c1ccccc1 | 4.22 | 62.5% |
| CC(C)C(C(=O)O)N1C(=O)/C(=C/c2ccc(Cl)cc2Cl)SC1=S (centres undefined) | 4.85 | – |
| CC(C)CC(C(=O)O)N1C(=O)/C(=C/c2ccc(Cl)cc2Cl)SC1=S (centres undefined) | 4.72 | – |
| O=C(O)CN1C(=O)/C(=C/c2ccc(Cl)c(Cl)c2)SC1=S | 5.08 | – |
| CC(C)C(C(=O)O)N1C(=O)/C(=C/c2ccc(F)cc2)SC1=S (centres undefined) | 4.37 | – |
| CC(C)C(C(=O)O)N1C(=O)/C(=C/c2cccc3ccccc23)SC1=S (centres undefined) | 4.77 | – |
| O=C(O)C(Cc1ccccc1)N1C(=O)/C(=C/c2ccc(Cl)cc2Cl)SC1=S (centres undefined) | 4.97 | – |
| O=C1/C(=C/c2ccc(Cl)cc2Cl)SC(=S)N1CCS(=O)(=O)O | 4.63 | – |
| O=C(O)CN1C(=O)/C(=C/c2ccccc2[N+](=O)[O-])SC1=S | 4.79 | – |
| CC(C(=O)O)N1C(=O)/C(=C/c2ccc(Cl)cc2Cl)SC1=S (centres undefined) | 4.88 | – |
| O=C(O)CCN1C(=O)/C(=C/c2ccc(Cl)cc2Cl)SC1=S | 4.70 | – |
| CC(C(=O)O)N1C(=O)/C(=C/c2cccc3ccccc23)SC1=S (centres undefined) | 4.17 | – |
